{"source": "ChEMBL document CHEMBL5096216", "about": "“Rational Design, Synthesis, and Biological Evaluation of Novel S1PR2 Antagonists for Reversing 5-FU-Resistance in Colorectal Cancer” (J Med Chem, 2022)", "key": {"[1]": {"test_system": "SW620/5-FU", "assay": "Antitumor activity against human SW620/5-FU cells xenografted in nude mouse assessed as tumor growth inhibition at 5 mg/kg/day, iv in presence of 5-FU", "format": "functional", "conditions": "read-out: TGI"}, "[2]": {"assay": "Metabolic stability in rat liver homogenate assessed as half life at 1 mg/ml incubated for 48 hrs by HPLC analysis", "format": "ADME, tissue-based"}, "[3]": {"biological_target": "Sphingosine 1-phosphate receptor 1 (Homo sapiens, UniProt P21453)", "sequence (P21453 whole entry)": "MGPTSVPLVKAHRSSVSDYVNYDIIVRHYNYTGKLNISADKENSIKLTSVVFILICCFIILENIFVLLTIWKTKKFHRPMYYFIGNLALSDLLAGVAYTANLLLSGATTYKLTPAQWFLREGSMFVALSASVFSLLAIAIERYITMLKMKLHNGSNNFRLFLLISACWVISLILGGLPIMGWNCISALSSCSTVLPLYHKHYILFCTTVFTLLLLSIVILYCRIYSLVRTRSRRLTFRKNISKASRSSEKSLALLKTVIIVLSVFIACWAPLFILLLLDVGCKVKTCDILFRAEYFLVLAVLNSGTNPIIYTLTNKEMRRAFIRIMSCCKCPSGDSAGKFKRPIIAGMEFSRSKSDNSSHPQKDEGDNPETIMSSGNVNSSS", "assay": "Binding affinity to S1PR1 (unknown origin) assessed as dissociation constant by surface plasmon resonance analysis"}, "[4]": {"test_system": "SW620/5-FU", "assay": "Reversal of 5-FU resistance in human SW620/5-FU cells assessed as fold reduction in 5-Fluorouracil IC50 at 5 uM incubated for 48 hrs", "format": "functional"}, "[5]": {"test_system": "SW620/5-FU", "assay": "Induction of apoptosis in human SW620/5-FU cells at 20 to 40 uM in presence of 5-FU by Hochest33342 staining based assay", "format": "functional, cell-based", "conditions": "dose 20-40 µM"}, "[6]": {"test_system": "SW620/5-FU", "assay": "Induction of apoptosis in human SW620/5-FU cells assessed as early apoptotic cells at 10 uM incubated for 24 hrs by Annexin-V/PI staining based flow cytometry assay (reference value: 2.73%)", "format": "functional"}, "[7]": {"test_system": "SW620/5-FU", "assay": "Induction of apoptosis in human SW620/5-FU cells assessed as viable cells at 20 uM incubated for 24 hrs by Annexin-V/PI staining based flow cytometry assay (reference value: 94.3%)", "format": "functional", "conditions": "read-out: Activity"}, "[8]": {"biological_target": "Sphingosine 1-phosphate receptor 3 (Homo sapiens, UniProt Q99500)", "sequence (Q99500 whole entry)": "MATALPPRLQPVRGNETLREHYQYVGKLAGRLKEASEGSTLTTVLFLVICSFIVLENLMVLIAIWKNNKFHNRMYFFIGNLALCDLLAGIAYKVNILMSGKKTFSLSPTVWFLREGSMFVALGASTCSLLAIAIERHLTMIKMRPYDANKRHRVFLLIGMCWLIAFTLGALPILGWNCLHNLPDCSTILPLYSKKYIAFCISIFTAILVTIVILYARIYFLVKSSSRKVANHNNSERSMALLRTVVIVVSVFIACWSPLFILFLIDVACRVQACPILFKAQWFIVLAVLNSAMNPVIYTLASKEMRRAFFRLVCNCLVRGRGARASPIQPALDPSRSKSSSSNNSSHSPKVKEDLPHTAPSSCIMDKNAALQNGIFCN", "assay": "Binding affinity to S1PR3 (unknown origin) assessed as dissociation constant by surface plasmon resonance analysis"}, "[9]": {"assay": "Metabolic stability in rat plasma assessed as half life at 1 mg/ml incubated for 48 hrs by HPLC analysis", "format": "ADME, cell-free"}, "[10]": {"test_system": "HCT-116", "assay": "Reversal of 5-FU resistance in human HCT-116 cells overexpressing DPD assessed as fold reduction in 5-Fluorouracil IC50 at 5 uM incubated for 48 hrs", "format": "functional"}, "[11]": {"test_system": "SW620/5-FU", "assay": "Induction of apoptosis in human SW620/5-FU cells assessed as viable cells at 10 uM incubated for 24 hrs in presence of 5-FU by Annexin-V/PI staining based flow cytometry assay (reference value: 94.3%)", "format": "functional", "conditions": "read-out: Activity"}, "[12]": {"biological_target": "Sphingosine 1-phosphate receptor 5 (Homo sapiens, UniProt Q9H228)", "sequence (Q9H228 whole entry)": "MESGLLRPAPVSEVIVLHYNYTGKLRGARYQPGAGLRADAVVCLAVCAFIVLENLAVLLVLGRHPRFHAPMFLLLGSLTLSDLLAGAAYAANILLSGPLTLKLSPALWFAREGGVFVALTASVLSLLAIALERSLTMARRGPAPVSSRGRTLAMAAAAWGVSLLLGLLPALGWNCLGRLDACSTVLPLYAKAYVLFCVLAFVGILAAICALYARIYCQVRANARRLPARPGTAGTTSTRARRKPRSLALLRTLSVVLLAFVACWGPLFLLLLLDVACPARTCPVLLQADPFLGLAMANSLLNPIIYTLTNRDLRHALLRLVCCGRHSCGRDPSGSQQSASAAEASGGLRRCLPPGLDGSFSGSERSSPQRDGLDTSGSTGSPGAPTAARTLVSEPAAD", "assay": "Binding affinity to S1PR5 (unknown origin) assessed as dissociation constant by surface plasmon resonance analysis"}, "[13]": {"test_system": "SW620/5-FU", "assay": "Downregulation of H3K27me3 expression in human SW620/5-FU cells at 10 uM incubated for 72 hrs by Western blot analysis", "format": "functional, cell-based"}, "[14]": {"test_system": "SW620/5-FU", "assay": "Inhibition of FBAL stimulated DPD expression in human SW620/5-FU cells at 10 uM incubated for 72 hrs by Western blot analysis", "format": "functional, cell-based"}, "[15]": {"test_system": "HT-29", "assay": "Reversal of 5-FU resistance in human HT-29 cells assessed as reduction in cell viability incubated for 48 hrs in presence of 5-FU by MTT assay", "format": "functional, cell-based", "conditions": "HT-29, 48 h"}, "[16]": {"test_system": "SW620/5-FU", "assay": "Induction of apoptosis in human SW620/5-FU cells assessed as late apoptotic cells at 20 uM incubated for 24 hrs by Annexin-V/PI staining based flow cytometry assay (reference value: 2.97%)", "format": "functional"}, "[17]": {"assay": "Cytotoxicity against human NCM460 cells assessed as reduction in cell viability incubated for 48 hrs by MTT assay", "format": "toxicity, cell-based"}, "[18]": {"test_system": "SW620/5-FU", "assay": "Induction of apoptosis in human SW620/5-FU cells assessed as necrotic cells at 10 uM incubated for 24 hrs by Annexin-V/PI staining based flow cytometry assay (reference value: 0%)", "format": "functional"}, "[19]": {"test_system": "Mus musculus", "assay": "In vivo inhibition of tumor DPD expression in human SW620/5-FU cells xenografted in nude mouse at 1 to 10 mg/kg/day by immunohistochemistry analysis", "format": "functional, organism-based", "conditions": "dose 1-10 mg/kg/day"}, "[20]": {"test_system": "HT-29", "assay": "Reversal of 5-FU resistance in human HT-29 cells assessed as fold reduction in 5-Fluorouracil IC50 at 5 uM incubated for 48 hrs", "format": "functional"}, "[21]": {"assay": "Induction of intracellular 5-FU accumulation in human SW620/5-FU cells measured after 6 hrs by HPLC analysis (reference value: 4.3 microg/ml)", "format": "functional"}, "[22]": {"test_system": "SW620/5-FU", "assay": "Upregulation of H3K27me3 expression in human SW620/5-FU cells incubated for 12 hrs by Western blot analysis", "format": "functional, cell-based", "conditions": "dose 2.5-20 µM, DDE = dose-dependent effect"}, "[23]": {"test_system": "SW620/5-FU", "assay": "Induction of apoptosis in human SW620/5-FU cells assessed as necrotic cells at 20 uM incubated for 24 hrs in presence of 5-FU by Annexin-V/PI staining based flow cytometry assay (reference value: 0%)", "format": "functional"}, "[24]": {"assay": "Metabolic stability in human plasma assessed as half life at 1 mg/ml incubated for 48 hrs by HPLC analysis", "format": "ADME, cell-free"}, "[25]": {"test_system": "SW620/5-FU", "assay": "Antiproliferative activity against human SW620/5-FU cells assessed as reduction in cell viability incubated for 48 hrs by MTT assay", "format": "functional, cell-based"}, "[26]": {"test_system": "SW620/5-FU", "assay": "Antitumor activity against human SW620/5-FU cells xenografted in nude mouse assessed as tumor wight at 1 mg/kg/day, iv in presence of 5-FU (reference value: 1.3 +/-0.6 g)", "format": "functional"}, "[27]": {"biological_target": "T1, Sphingosine 1-phosphate receptor 4 (Homo sapiens, UniProt O95977)", "T1 sequence (O95977 whole entry)": "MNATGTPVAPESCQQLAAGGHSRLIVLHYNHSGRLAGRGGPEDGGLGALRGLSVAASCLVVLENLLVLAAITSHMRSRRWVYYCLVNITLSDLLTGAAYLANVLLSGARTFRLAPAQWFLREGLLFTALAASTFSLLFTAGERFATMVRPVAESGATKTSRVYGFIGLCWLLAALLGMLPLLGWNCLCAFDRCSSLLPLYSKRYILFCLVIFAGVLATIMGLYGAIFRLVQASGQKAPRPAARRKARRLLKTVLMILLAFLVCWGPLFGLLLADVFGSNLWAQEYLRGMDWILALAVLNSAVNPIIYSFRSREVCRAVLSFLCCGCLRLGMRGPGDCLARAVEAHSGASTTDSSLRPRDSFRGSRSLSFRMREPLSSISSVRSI", "assay": "Binding affinity to S1PR4 (unknown origin) assessed as dissociation constant by surface plasmon resonance analysis"}, "[28]": {"test_system": "HT-29", "assay": "Antiproliferative activity against human HT-29 cells assessed as reduction in cell viability incubated for 48 hrs by MTT assay", "format": "functional, cell-based", "conditions": "HT-29, 48 h"}, "[29]": {"test_system": "HT-29", "assay": "Downregulation of DPD expression in 5-FU resistant human HT-29 cells incubated for 12 hrs by Western blot analysis", "format": "functional, cell-based", "conditions": "dose 2.5-20 µM, DDE = dose-dependent effect"}, "[30]": {"test_system": "HCT-116", "assay": "Antiproliferative activity against human HCT-116 cells overexpressing DPD assessed as reduction in cell viability incubated for 48 hrs by MTT assay", "format": "functional, cell-based", "conditions": "HCT-116, 48 h"}, "[31]": {"biological_target": "Sphingosine 1-phosphate receptor 2 (Homo sapiens, UniProt O95136)", "sequence (O95136 whole entry)": "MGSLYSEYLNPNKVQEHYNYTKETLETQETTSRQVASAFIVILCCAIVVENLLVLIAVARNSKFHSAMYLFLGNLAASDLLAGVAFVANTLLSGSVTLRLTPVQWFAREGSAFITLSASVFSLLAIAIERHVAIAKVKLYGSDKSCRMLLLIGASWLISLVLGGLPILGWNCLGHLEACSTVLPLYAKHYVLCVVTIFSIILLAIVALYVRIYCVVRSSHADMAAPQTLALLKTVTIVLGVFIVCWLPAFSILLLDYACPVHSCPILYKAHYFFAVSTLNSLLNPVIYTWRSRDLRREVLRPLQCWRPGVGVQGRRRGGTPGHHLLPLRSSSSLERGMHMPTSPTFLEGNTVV", "assay": "Inhibition of FBAL stimulated S1PR2 in human SW620/5-FU cells incubated for 72 hrs by Western blot analysis", "format": "cell-based", "conditions": "dose 5-15 µM, DDE = dose-dependent effect"}, "[32]": {"test_system": "SW620/5-FU", "assay": "Antitumor activity against human SW620/5-FU cells xenografted in nude mouse assessed as tumor volume at 10 mg/kg/day, iv measured on day 15 in presence of 5-FU (reference value: 1991 +/- 469 mm3)", "format": "functional", "conditions": "time 15 day"}}, "note": "Calls of active or inactive are those of the source. The rule behind the calls is not given here."}
{"smiles": "CCC(CC)CN1CCN(C(=O)Nc2cc(Oc3ccc(F)cc3)cc(Oc3ccc(C(=O)NC)cc3)c2)CC1", "values": [{"measurement": "inhibition in vivo at 5 mg/kg/day", "setting": "[1]", "value": 66.8, "unit": "%"}, {"measurement": "half-life at 1 mg/ml", "setting": "[2]", "value": "> 48", "unit": "h"}, {"measurement": "Kd", "setting": "[3]", "value": "> 0.1", "unit": "µM"}, {"measurement": "fold change (FC)", "setting": "[4]", "value": 88}, {"measurement": "Activity", "setting": "[5]", "value": "Active"}, {"measurement": "Activity", "setting": "[6]", "value": 3.41, "unit": "%"}, {"measurement": "viability at 20 µM", "setting": "[7]", "value": 92.1, "unit": "%"}, {"measurement": "Kd", "setting": "[8]", "value": "> 0.1", "unit": "µM"}, {"measurement": "half-life at 1 mg/ml", "setting": "[9]", "value": "> 48", "unit": "h"}, {"measurement": "fold change (FC)", "setting": "[10]", "value": 41}, {"measurement": "viability at 10 µM", "setting": "[11]", "value": 87.7, "unit": "%"}, {"measurement": "Kd", "setting": "[12]", "value": "> 0.1", "unit": "µM"}, {"measurement": "Activity", "setting": "[13]", "value": "Active"}, {"measurement": "inhibition", "setting": "[14]", "value": "Active"}, {"measurement": "IC50", "setting": "[15]", "value": 2.51, "unit": "µM"}, {"measurement": "Activity", "setting": "[16]", "value": 4.01, "unit": "%"}, {"measurement": "IC50 at 48 hrs", "setting": "[17]", "value": "> 100", "unit": "µM"}, {"measurement": "Activity", "setting": "[18]", "value": 0.042, "unit": "%"}, {"measurement": "inhibition", "setting": "[19]", "value": "Active"}, {"measurement": "fold change (FC)", "setting": "[20]", "value": 127}, {"measurement": "Activity", "setting": "[21]", "value": 12.2, "unit": "µg/mL"}, {"measurement": "Activity", "setting": "[22]", "value": "Dde"}, {"measurement": "Activity", "setting": "[23]", "value": 0.076, "unit": "%"}, {"measurement": "half-life at 1 mg/ml", "setting": "[24]", "value": "> 48", "unit": "h"}, {"measurement": "IC50", "setting": "[25]", "value": "> 100", "unit": "µM"}, {"measurement": "Activity", "setting": "[26]", "value": 0.6, "unit": "g"}, {"measurement": "Kd", "setting": "[27]", "value": "> 0.1", "unit": "µM"}, {"measurement": "IC50", "setting": "[28]", "value": "> 100", "unit": "µM"}, {"measurement": "Activity", "setting": "[29]", "value": "Dde"}, {"measurement": "IC50", "setting": "[30]", "value": "> 100", "unit": "µM"}, {"measurement": "inhibition", "setting": "[31]", "value": "Dde"}, {"measurement": "Activity", "setting": "[32]", "value": 521, "unit": "mm3"}]}
